Assay results from patent US20090281143A1, “Dose Reduction of a Cannabinoid CB1 Receptor Antagonist in the Treatment of Overweight or Obesity” (N-Gene Research Laboratories, Inc., priority 2007, published 2009).

Assay: Inhibition of body weight gain in high fat diet exposed mice
Details: for weight gain in relation to that of the control group fed with standard laboratory chow: excess over chow control
Method: OF-1 female mice weighing about 18-20 g at the beginning of the experiment were used in the study. […] The high fat diet consisted of palatable food that contained 50% fat. The group on standard laboratory chow was also treated with vehicle. Treatment was performed with all of the drugs, orally, at 5 ppm. The weight of the animals was measured weekly.

With `Cc1c(C(=O)NN2CCCCC2)nn(-c2ccc(Cl)cc2Cl)c1-c1ccc(Cl)cc1` [rimonabant, N-piperidino-5-(4-chlorophenyl)-1-(2,4-dichlorophenyl)-4-methylpyrazole-3-carboxamide] the “Body weight gain in g after 2 weeks” value (rimonabant 2 mg/kg daily oral, after 2 weeks) was 10.6 g, the “Body weight gain in g after 3 weeks” value (rimonabant 2 mg/kg daily oral, after 3 weeks) was 14.1 g and the “weight gain in relation to that of the control group fed with standard laboratory chow” value (“weight gain in relation to that” below) (rimonabant 2 mg/kg, after 2 weeks) was 22%. For the same compound, the “weight gain in relation to that” value (rimonabant 2 mg/kg, after 3 weeks) was 33%, the “Body weight gain in g after 2 weeks” value (rimonabant 10 mg/kg daily oral, after 2 weeks) was 10.2 g and the “Body weight gain in g after 3 weeks” value (rimonabant 10 mg/kg daily oral, after 3 weeks) was 13.0 g. The “weight gain in relation to that” value (rimonabant 10 mg/kg, after 2 weeks) was 17% and the “weight gain in relation to that” value (rimonabant 10 mg/kg, after 3 weeks) was 22.6%.
